# Measured values published in ChEMBL document CHEMBL1629583, “Establishment of in vitro susceptibility testing methodologies and comparative activities of piperacillin in combination with the penem {beta}-lactamase inhibitor BLI-489” (2009).
# Assays:
# Assay type in all cases: functional
# Staphylococcus aureus [1] = experiment: Antimicrobial activity against methicillin-resistant Staphylococcus aureus clinical isolate after 18 to 22 hrs by broth microdilution method
# Staphylococcus aureus [2] = experiment: Antimicrobial activity against methicillin-susceptible Staphylococcus aureus clinical isolate after 18 to 22 hrs by broth microdilution method
# [3] = tested on: Staphylococcus epidermidis; experiment: Antimicrobial activity against methicillin-resistant Staphylococcus epidermidis clinical isolate after 18 to 22 hrs by broth microdilution method
# [4] = tested on: Staphylococcus epidermidis; experiment: Antimicrobial activity against methicillin-susceptible Staphylococcus epidermidis clinical isolate after 18 to 22 hrs by broth microdilution method
# [5] = tested on: Staphylococcus haemolyticus; experiment: Antimicrobial activity against Staphylococcus haemolyticus clinical isolate after 18 to 22 hrs by broth microdilution method
# Enterococcus faecalis [6] = experiment: Antimicrobial activity against Enterococcus faecalis clinical isolate after 18 to 22 hrs by broth microdilution method
# Enterococcus faecium [7] = experiment: Antimicrobial activity against Enterococcus faecium clinical isolate after 18 to 22 hrs by broth microdilution method
# Enterococcus faecalis [8] = experiment: Antimicrobial activity against vancomycin-resistant Enterococcus faecalis clinical isolate after 18 to 22 hrs by broth microdilution method
# Enterococcus faecium [9] = experiment: Antimicrobial activity against vancomycin-resistant Enterococcus faecium clinical isolate after 18 to 22 hrs by broth microdilution method
# Enterococcus avium = experiment: Antimicrobial activity against Enterococcus avium clinical isolate after 18 to 22 hrs by broth microdilution method
# Streptococcus pneumoniae [10] = experiment: Antimicrobial activity against penicillin-susceptible Streptococcus pneumoniae clinical isolate after 18 to 22 hrs by broth microdilution method
# Streptococcus pneumoniae [11] = experiment: Antimicrobial activity against penicillin-intermediate Streptococcus pneumoniae clinical isolate after 18 to 22 hrs by broth microdilution method
# Streptococcus pneumoniae [12] = experiment: Antimicrobial activity against penicillin-resistant Streptococcus pneumoniae clinical isolate after 18 to 22 hrs by broth microdilution method
# Streptococcus pyogenes = experiment: Antimicrobial activity against Streptococcus pyogenes clinical isolate after 18 to 22 hrs by broth microdilution method
# [13] = tested on: Enterococcus casseliflavus; experiment: Antimicrobial activity against Enterococcus casseliflavus clinical isolate after 18 to 22 hrs by broth microdilution method
# Enterococcus durans = experiment: Antimicrobial activity against Enterococcus durans clinical isolate after 18 to 22 hrs by broth microdilution method
# Enterococcus gallinarum = experiment: Antimicrobial activity against Enterococcus gallinarum clinical isolate after 18 to 22 hrs by broth microdilution method
# Enterococcus hirae = experiment: Antimicrobial activity against Enterococcus hirae clinical isolate after 18 to 22 hrs by broth microdilution method
# Streptococcus agalactiae = experiment: Antimicrobial activity against Streptococcus agalactiae clinical isolate after 18 to 22 hrs by broth microdilution method
compound,measurement,setting,value
CC(=O)NC[C@H]1CN(c2ccc(N3CCOCC3)c(F)c2)C(=O)O1 [LINEZOLID],MIC50,Staphylococcus aureus [1],2 µg/mL
same,MIC90,Staphylococcus aureus [1],4 µg/mL
same,MIC50,Staphylococcus aureus [2],4 µg/mL
same,MIC90,Staphylococcus aureus [2],4 µg/mL
same,MIC,[3],1 µg/mL
same,MIC50,[3],1 µg/mL
same,MIC90,[3],2 µg/mL
same,MIC,[4],1 µg/mL
same,MIC50,[4],1 µg/mL
same,MIC90,[4],2 µg/mL
same,MIC,[5],1 µg/mL
same,MIC50,[5],1 µg/mL
same,MIC90,[5],2 µg/mL
same,MIC50,Enterococcus faecalis [6],2 µg/mL
same,MIC90,Enterococcus faecalis [6],2 µg/mL
same,MIC50,Enterococcus faecium [7],2 µg/mL
same,MIC90,Enterococcus faecium [7],2 µg/mL
same,MIC50,Enterococcus faecalis [8],2 µg/mL
same,MIC90,Enterococcus faecalis [8],2 µg/mL
same,MIC50,Enterococcus faecium [9],2 µg/mL
same,MIC90,Enterococcus faecium [9],2 µg/mL
same,MIC50,Enterococcus avium,2 µg/mL
same,MIC90,Enterococcus avium,2 µg/mL
same,MIC50,Streptococcus pneumoniae [10],0.5 µg/mL
same,MIC90,Streptococcus pneumoniae [10],1 µg/mL
same,MIC50,Streptococcus pneumoniae [11],0.5 µg/mL
same,MIC90,Streptococcus pneumoniae [11],1 µg/mL
same,MIC50,Streptococcus pneumoniae [12],1 µg/mL
same,MIC90,Streptococcus pneumoniae [12],1 µg/mL
same,MIC50,Streptococcus pyogenes,1 µg/mL
same,MIC90,Streptococcus pyogenes,1 µg/mL
same,MIC50,[13],2 µg/mL
same,MIC90,[13],2 µg/mL
same,MIC50,Enterococcus durans,2 µg/mL
same,MIC90,Enterococcus durans,2 µg/mL
same,MIC50,Enterococcus gallinarum,2 µg/mL
same,MIC90,Enterococcus gallinarum,2 µg/mL
same,MIC50,Enterococcus hirae,2 µg/mL
same,MIC90,Enterococcus hirae,2 µg/mL
same,MIC50,Streptococcus agalactiae,1 µg/mL
same,MIC90,Streptococcus agalactiae,2 µg/mL
CN[C@H](CC(C)C)C(=O)N[C@H]1C(=O)N[C@@H](CC(N)=O)C(=O)N[C@H]2C(=O)N[C@H]3C(=O)N[C@H](C(=O)N[C@H](C(=O)O)c4cc(O)cc(O)c4-c4cc3ccc4O)[C@H](O)c3ccc(c(Cl)c3)Oc3cc2cc(c3O[C@@H]2O[C@H](CO)[C@@H](O)[C@H](O)[C@H]2O[C@H]2C[C@](C)(N)[C@H](O)[C@H](C)O2)Oc2ccc(cc2Cl)[C@H]1O [VANCOMYCIN],MIC50,Staphylococcus aureus [1],1 µg/mL
same,MIC90,Staphylococcus aureus [1],1 µg/mL
same,MIC50,Staphylococcus aureus [2],0.5 µg/mL
same,MIC90,Staphylococcus aureus [2],1 µg/mL
same,MIC50,[3],2 µg/mL
same,MIC90,[3],2 µg/mL
same,MIC50,[4],1 µg/mL
same,MIC90,[4],1 µg/mL
same,MIC50,[5],1 µg/mL
same,MIC90,[5],1 µg/mL
same,MIC50,Enterococcus faecalis [6],1 µg/mL
same,MIC90,Enterococcus faecalis [6],2 µg/mL
same,MIC50,Enterococcus faecium [7],0.5 µg/mL
same,MIC90,Enterococcus faecium [7],1 µg/mL
same,MIC50,Enterococcus faecalis [8],> 32 µg/mL
same,MIC90,Enterococcus faecalis [8],> 32 µg/mL
same,MIC,Enterococcus faecium [9],> 32 µg/mL
same,MIC50,Enterococcus faecium [9],> 32 µg/mL
same,MIC90,Enterococcus faecium [9],> 32 µg/mL
same,MIC,Enterococcus avium,0.25 µg/mL
same,MIC50,Enterococcus avium,0.25 µg/mL
same,MIC90,Enterococcus avium,0.5 µg/mL
same,MIC50,Streptococcus pneumoniae [10],0.12 µg/mL
same,MIC90,Streptococcus pneumoniae [10],0.25 µg/mL
same,MIC50,Streptococcus pneumoniae [11],0.25 µg/mL
same,MIC90,Streptococcus pneumoniae [11],0.25 µg/mL
same,MIC50,Streptococcus pneumoniae [12],0.25 µg/mL
same,MIC90,Streptococcus pneumoniae [12],0.25 µg/mL
same,MIC50,Streptococcus pyogenes,0.25 µg/mL
same,MIC90,Streptococcus pyogenes,0.25 µg/mL
same,MIC50,[13],0.5 µg/mL
same,MIC90,[13],4 µg/mL
same,MIC50,Enterococcus durans,0.5 µg/mL
same,MIC90,Enterococcus durans,4 µg/mL
same,MIC50,Enterococcus gallinarum,0.5 µg/mL
same,MIC90,Enterococcus gallinarum,4 µg/mL
same,MIC50,Enterococcus hirae,0.5 µg/mL
same,MIC90,Enterococcus hirae,4 µg/mL
same,MIC,Streptococcus agalactiae,0.25 µg/mL
same,MIC50,Streptococcus agalactiae,0.25 µg/mL
same,MIC90,Streptococcus agalactiae,0.5 µg/mL
